Measurements reported in article PMC7835349 (Communications Biology, 2021).
“And” between values parts separate entries of the source, which are not always exact repeats. Equal entries are not always repeated.

Assays:
platelets [1] = test: Platelet count in rats; type: in vivo
Text: Supplementary Figure 7. Effect of AZD4320 and AZD4320-dendrimer conjugates on platelet count in rats. Data for dendrimers was collected from the same rats for which cardiovascular data were acquired (see Fig. 4a and b). Data for AZD4320 was collected from a non-cardiovascular study. Each symbol represent data from an individual rat. Colours representing each compound and dose are shown on the figure.
(1 picture or pasted object on this page, not shown here)

cleaved caspase-3 (CC3) = test: Cleaved caspase-3 immunohistochemistry of RS4;11 tumours; type: in vivo, C.B-17 SCID mouse; settings: RS4;11 tumours, 1, 5 and 24 h post dose
Description: Formalin fixed paraffin embedded (FFPE) slides were cut on a rotary microtome at 4 µm and placed onto Superfrost plus slides (VWR) dried thoroughly, and then baked for 20 min in an oven at 60 °C. Slides were then stained on a Ventana Discovery XT using a CCI standard protocol and DAB Map Kit (Ventana cat # 760-124). The slides were then incubated in the primary CC3 (Cell Signaling Technology) antibody at 100µL per slide of a 1:50 dilution for 1 h. The secondary antibody was a biotinylated goat anti-rabbit from Vector Labs (PK-6101) made according to manufacturer’s instructions and put in an auto-dispense container. The slides were incubated in the secondary antibody for 30 min and then counterstained with Hematoxylin (Ventana 760-2021) for 4 min and blued with bluing reagent (Ventana 760-2037) for 4 min. After the Ventana run was complete, slides were taken off the machine, rinsed in reaction buffer, dehydrated, cleared and mounted with permount. Digital slide images were acquired at 20 x magnification using the Aperio Scanscope XT (Vista, CA).

[2] = Mathematical model of in vivo disposition of drug-dendrimer conjugates; set-up: species or system mouse; settings: best fit of Eq. (3) to released AZD4320 in RS4;11 tumour
in vivo = settings: beagle, dog
SUDHL-4 xenograft = SUDHL-4 xenograft efficacy and survival; type: in vivo, C.B-17 SCID mouse
Description: Female C.B.−17 SCID mice were purchased from Charles River Laboratories. Mice were 5–8 weeks old at the time of tumour implantation. All xenograft studies were conducted at our Association for the Assessment and Accreditation of Laboratory Animal Care accredited facility in Waltham, MA in accordance with ethical regulations described in the guidelines established by the internal Institutional Animal Care and Use Committee. The dendrimer conjugates were formulated in citrate/phosphate buffer pH 5.0, diluted 1:10 with 5% glucose containing 1% w/v Kolliphor HS15, and AZD4320 was formulated in 30% HP-β-CD and dosed as a weekly intravenous (IV) administration at a volume of 5 ml/kg at the indicated doses. Five million RS4;11, five million SUDHL-4 or five million OCI-LY-10 cells were injected subcutaneously in the right flank of mice in a volume of 0.1 ml. Tumour volumes (measured by caliper), animal body weight, and tumor condition were recorded twice weekly for the duration of the study. The tumour volume was calculated (taking length to be the longest diameter across the tumour and width to be the corresponding perpendicular diameter) using the formula: length (mm) x width (mm)^2/0.52. For efficacy studies, mice were randomized based on tumour volumes using stratified sampling and enrolled into control and treatment groups. Tumour growth inhibition from the start of treatment was quantified by measuring the difference in tumour volume between control and treated groups. Survival analysis was evaluated using Mantel-Cox test. Tumours were also taken for bioanalysis.

platelets [3] = test: Platelet count in dogs; type: in vivo; settings: dog, weekly ascending doses

For CN(CCO)CCC(CSc1ccccc1)Nc1ccc(S(=O)(=O)NC(=O)c2ccc(N3CCC(C(O)c4ccccc4-c4ccc(Cl)cc4)CC3)cc2)cc1S(=O)(=O)C(F)(F)F (stereo not drawn) [AZD4320], which “Platelet count, individual rat” value (platelets [1]; 10mg/kg, Day 2 (3h post dose), 10 mg/kg) is on record?
Its value is 31 10^9/L and 28 10^9/L and 46 10^9/L and 13 10^9/L.

What about the Platelets post-dose (platelets [1]; rat, Dose 10 mg/kg (AZD4320 equivalent 10 for AZD4320, 3 for conjugates)) of the same compound?
Its Platelets post-dose is 30 109/l.

What about the “cleaved caspase-3 induction by IHC” value (cleaved caspase-3 (CC3)) of the same compound?
The value was “robust cleaved caspase induction”.

What about the “Constant for return of released AZD4320 from tumour tissue to systemic circulation (first order) ktu” value [2] of the same compound?
Its value is 0.053 h⁻¹.

And the MTD at 48 h (in vivo)?
Its MTD at 48 h is less than 3 mg/kg.

For AZD4320-MIDA-PEG2100 [AZD0466], which “animals with complete and durable regressions” value (SUDHL-4 xenograft; SUDHL-4, 103 mg/kg AZD0466 + 10 mg/kg rituximab) is on record?
Its value is 5/6.

And the “animals with complete and durable regressions” value (SUDHL-4 xenograft; SUDHL-4, 172 mg/kg AZD0466 + 10 mg/kg rituximab)?
The value was 6/6.

And the “combination effect” value (SUDHL-4 xenograft; SUDHL-4, AZD0466 at various doses combined with 10 mg/kg rituximab)?
Its value is “tumour regressions were seen in the combination groups at all doses”.

And the “SUDHL-4 xenograft efficacy, Geo Mean” value (SUDHL-4 xenograft; day 1)?
The value was 200.82.

And the “SUDHL-4 xenograft efficacy, Geo Mean” value (SUDHL-4 xenograft; day 5)?
Its value is 191.7.

And the “SUDHL-4 xenograft efficacy, Geo Mean” value (SUDHL-4 xenograft; day 9)?
The value was 255.655.

What about the “SUDHL-4 xenograft efficacy, Geo Mean” value (SUDHL-4 xenograft; day 12) of the same compound?
Its value is 291.711.

What about the “SUDHL-4 xenograft efficacy, Geo Mean” value (SUDHL-4 xenograft; day 16) of the same compound?
The value was 450.847.

And the “SUDHL-4 xenograft efficacy, Geo Mean” value (SUDHL-4 xenograft; day 19)?
The value was 493.153.

And the “SUDHL-4 xenograft efficacy, Geo Mean” value (SUDHL-4 xenograft; day 23)?
Its value is 795.158.

What about the “SUDHL-4 xenograft efficacy, Geo Mean” value (SUDHL-4 xenograft; day 26) of the same compound?
The value was 1047.96.

What about the “SUDHL-4 xenograft efficacy, Geo Mean” value (SUDHL-4 xenograft; day 29) of the same compound?
Its value is 1181.66.

And the “effect on platelet count” value (platelets [3])?
The value was “reversible and dose-dependent decrease in platelet count”.
